Measured values taken from patent EP1551873B1, “AGONISTS AND ANTAGONISTS OF THE HUMAN ODORANT RECEPTOR OR17-4 AND USES THEREOF” (Symrise AG, priority 2002, dated 2004).

What was measured:
Format in all cases: cell-based
humane Spermien = assay: Ca2+ imaging of head and midpiece of single human spermatozoa
Excerpt: Die Ca^2+-imaging-Experimente wurden auf dem Träger eines invertierten Zeiss-Mikroskopes durchgeführt, das für die ratiofluorometrische Bildgebung mit einer Xenon-Bogenlampe, einem Vielfach-Wellenlängen-Illuminations-System POLYCH-ROM II zur Anregung, einer gekühlten charge-coupled device (CCD)-Kamera und einer WinNT-basierten T.I.L.L.-Vision-Software zum Sammeln und raum- und zeitabhängigen Quantifizieren Ca^2+-abhängiger Fluoreszenz-Signale (F340/F380-Verhältnis) ausgestattet war. HEK293-Zellen wurden mit 32-facher, Spermazellen mit 63-facher Vergrößerung beobachtet.
HEK293- und Spermazellen wurden unter Verwendung eines speziellen Applikations-Systems, das es gestattete, vorübergehend alle Zellen im Blickfeld aus einem von sechs benutzergewählten Kapillarröhrchen zu überspülen, Geruchs- und/oder Wirkstoffen (Testlösungen) ausgesetzt. Der Wechsel zwischen den Testlösungen erfolgte nahezu sofort; auch trat im Wesentlichen keine Wirkungsverzögerung nach dem Wechsel auf, weil die Röhrchenspitzen zum optischen Feld eng benachbart waren. Zwischen den Applikationen von Testlösungen überspülte ein Pufferlösungsstrom kontinuierlich alle Zellen im Gefäß, um jedwede potentielle Hintergrund-Anreicherung von Testlösungen (Geruchs- bzw. Wirkstoffen) zu minimieren. Alle Lösungen wurden bei Raumtemperatur appliziert. Alle verwendeten Geruchsstoffe stammten von Dr. T. Gerke, Henkel KGaA, Düsseldorf, FRG, andere Wirkstoffe wurden von Sigma gekauft. Zur Zusammensetzung der Henkel 100-Mischung vergleiche C. H. Wetzel et al., Journal of Neuroscience 19, 7426-7433 (1999).
Die mögliche Rolle von hOR17-4 in einem Ca^2+-vermittelten physiologischen Prozess in humanen Spermatozoen (z.B. Acrosomreaktion, Kapazitationsprozess oder Änderungen zur hyperaktivierten Beweglichkeit) wurden durch Ca^2+-Imaging der Kopf- und der Mittelregion von einzelnen humanen Spermien untersucht. Dazu wurden frisch von jungen, gesunden Spendern erhaltene humane Spermien unverzüglich in 1,5-ml Plastikröhrchen transferiert. Nach 30 minütiger aufrechter Inkubation bei 37 °C wurden 75 µl beweglicher Spermien aus der oberen Schicht der Spermiensuspension auf Concanavalin A-beschichtete 35 mm Petrischalen transferiert und 45 Minuten lang bei Raumtemperatur in 1 ml Ladungspuffer (pH 7,4) mit 140 mM NaCl, 5 mM KCI, 2 mM CaCl2, 2 mM MgCl2, 10 mM Hepes, 10 mM Glucose, 5 µM Fura-2-AM (Molecular Probes), and 0,1 % Pluronic F-127 inkubiert. Danach wurde das Medium sanft durch Fura-2-AM-freie Pufferlösung ausgewechselt. Nicht an den Boden angeheftetes Sperma wurde durch diesen Schritt entfernt. Ca^2+-Bilder wurden von 8 bis 15 Spermatozoen in einem zufällig gewählten Sichtfeld aufgenommen. Die Fluoreszenzsignale eines Spermienkopfes und der Mittelregion wurden gemessen. […]

hOR17-40 = target: T1, hOR17-40 (Homo sapiens, UniProt P47881); assay: Ca2+ imaging of HEK293 cells transfected with pOR17-40
T1 construct: pOR17-40 (Ausschnitt) mit der vollständigen cDNA von hOR17-40; expressed in transfected cells; host or cells: HEK293, plasmid pOR17-40
T1 sequence (P47881 1-315): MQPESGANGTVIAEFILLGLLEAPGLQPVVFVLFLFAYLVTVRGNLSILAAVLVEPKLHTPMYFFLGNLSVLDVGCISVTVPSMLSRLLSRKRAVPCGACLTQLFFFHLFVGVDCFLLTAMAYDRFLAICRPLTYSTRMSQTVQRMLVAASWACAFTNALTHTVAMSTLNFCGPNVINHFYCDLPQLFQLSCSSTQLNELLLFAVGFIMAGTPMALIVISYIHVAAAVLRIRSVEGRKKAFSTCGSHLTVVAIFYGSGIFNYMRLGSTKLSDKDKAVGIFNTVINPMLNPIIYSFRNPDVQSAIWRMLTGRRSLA

[1] = target: T2, hOR17-4 Rezeptor der vollen Länge (Homo sapiens, UniProt P34982); assay: Ca2+ imaging of HEK293 cells expressing full-length receptor (pOR17-4v)
T2 construct: wurde der Rezeptor hOR17-4 in seiner vollen Länge wie in Beispiel 3 beschrieben kloniert; expressed in transfected cells; host or cells: HEK293, transient, plasmid pOR17-4v (pRC/CMV)
T2 sequence (P34982 1-312): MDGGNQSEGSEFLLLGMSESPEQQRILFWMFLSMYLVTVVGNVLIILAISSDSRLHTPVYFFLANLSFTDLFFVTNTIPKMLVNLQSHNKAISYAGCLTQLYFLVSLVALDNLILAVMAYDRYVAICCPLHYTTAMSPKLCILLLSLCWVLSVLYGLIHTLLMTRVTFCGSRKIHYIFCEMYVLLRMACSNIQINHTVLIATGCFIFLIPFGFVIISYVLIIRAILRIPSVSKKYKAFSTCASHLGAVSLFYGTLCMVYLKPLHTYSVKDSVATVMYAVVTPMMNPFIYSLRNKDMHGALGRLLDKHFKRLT
Excerpt: Um einen Expressionsvektor für das gesamte hOR17-4-Gen ohne geänderte Aminosäuresequenz zu erhalten, wurde das 982 bp lange PCR-Produkt (SEQ ID NO. 3, Herstellung vergleiche Beispiel 2) über stumpfe Enden in den Hindlll/Xbal verdauten Vektor pRC/CMV (Invitrogen, Carlsbad, CA), dessen überhängende Enden mit Klenow-Enzym aufgefüllt worden waren, einkloniert.
HEK293-Zellen wurden in MEM (Life Technologies, Gaithersburg, MD), das mit 10 % hitze-inaktiviertem fetalem Kälber-Serum angereichert war, in einem Inkubator bei 37 °C in einer Atmosphäre aus 95 % befeuchteter Luft und 5 % CO2 kultiviert. Semikonfluente Zellen wurden in 35 mm Gefäßen (Falcon) mittels Calciumphosphat-Präzipitation (Zufall et al., PNAS 90 (1993), 9335-9339) unter Verwendung jeweils des Plasmids pOR17-4 bzw. pOR17-4v transfiziert. […]
Die Ca^2+-imaging-Experimente wurden auf dem Träger eines invertierten Zeiss-Mikroskopes durchgeführt, das für die ratiofluorometrische Bildgebung mit einer Xenon-Bogenlampe, einem Vielfach-Wellenlängen-Illuminations-System POLYCH-ROM II zur Anregung, einer gekühlten charge-coupled device (CCD)-Kamera und einer WinNT-basierten T.I.L.L.-Vision-Software zum Sammeln und raum- und zeitabhängigen Quantifizieren Ca^2+-abhängiger Fluoreszenz-Signale (F340/F380-Verhältnis) ausgestattet war. […]

SMILES	Blockade der Ca^2+-Antworten auf Bourgeonal (humane Spermien; co-application at same concentration as Bourgeonal, with or without pre-incubation, n = 10)	inhibitorischer Effekt auf das Helional-induzierte Antwortmuster (hOR17-40; pre-incubation)	Inhibition der Bourgeonal-Antwort ([1]; 30 to 60 s pre-incubation of the cells)	vorübergehende Ca^2+-Antworten, Anteil aller getesteten Spermatozoen (humane Spermien; 5 s application, 43 of 119 spermatozoa, 12 experiments) [%]	Schwellenwert (Konzentration für Ca^2+-Antwort) (humane Spermien; about two orders of magnitude lower than for recombinant receptor)	Effizienz (Reihenfolge der Agonisten) in Spermien (humane Spermien; direct comparison in the same sperm)	Ca^2+-Signale (hOR17-40) (hOR17-40)	Aktivierung des vollständigen Rezeptors hOR17-4 [1]
CCCCCCCCCCC=O [n-Undecanal]	blockierte vollständig	keinen inhibitorischen Effekt	inhibiert					
CC(C)(C)c1ccc(CCC=O)cc1 [Bourgeonal]				36	≥ 10^-8 M	potentesten getesteten Liganden	keine Ca^2+-Signale	aktivierte deutlich
